{"source": "the supplement of paper PMC10307832", "test_in_all_cases": "relative viability (nuclei count vs DMSO), 5 days (fraction); higher = more cells survive", "key": {"LCLC-97TM1": {"tested_on": "LCLC-97TM1", "how_it_was_run": "(§1)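 Lung cancer cell lines were seeded in 1536-well plates and dosed by pin tool the next day, with either a single drug or a fixed anchor-drug dose combined with five library-drug doses (not always all listed) spaced in √10 steps. Five days later, one step fixed the cells and stained their nuclei (final 0.05% Triton X-100, 1% formaldehyde, 1 ug/ml Hoechst), and nuclei were counted on 4× images. Relative viability is the nuclei count in treated wells divided by the count in vehicle wells, and each value is the median of duplicate plates.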"}, "NCI-H1793": {"tested_on": "NCI-H1793", "how_it_was_run": "as §1"}, "NCI-H3122": {"tested_on": "NCI-H3122", "how_it_was_run": "as §1"}, "BEN": {"tested_on": "BEN", "how_it_was_run": "as §1"}, "HCC-827": {"tested_on": "HCC-827", "how_it_was_run": "as §1"}, "LXF-289": {"tested_on": "LXF-289", "how_it_was_run": "as §1"}, "LCLC-103H": {"tested_on": "LCLC-103H", "how_it_was_run": "as §1"}, "RERF-LC-KJ": {"tested_on": "RERF-LC-KJ", "how_it_was_run": "as §1"}, "NCI-H647": {"tested_on": "NCI-H647", "how_it_was_run": "as §1"}, "CAL-12T": {"tested_on": "CAL-12T", "how_it_was_run": "as §1"}, "NCI-H1792": {"tested_on": "NCI-H1792", "how_it_was_run": "as §1"}, "NCI-H322M": {"tested_on": "NCI-H322M", "how_it_was_run": "as §1"}, "201T": {"tested_on": "201T", "how_it_was_run": "as §1"}, "NCI-H2087": {"tested_on": "NCI-H2087", "how_it_was_run": "as §1"}, "NCI-H727": {"tested_on": "NCI-H727", "how_it_was_run": "as §1"}, "NCI-H2405": {"tested_on": "NCI-H2405", "how_it_was_run": "as §1"}, "NCI-H1395": {"tested_on": "NCI-H1395", "how_it_was_run": "as §1"}, "NCI-H1437": {"tested_on": "NCI-H1437", "how_it_was_run": "as §1"}, "NCI-H1944": {"tested_on": "NCI-H1944", "how_it_was_run": "as §1"}}, "data": [{"smiles": "Nc1ccn([C@@H]2O[C@H](CO)[C@@H](O)[C@@H]2O)c(=O)n1", "note": "[Cytarabine] + NC(=O)Nc1cc(-c2cccc(F)c2)sc1C(=O)N[C@H]1CCCNC1 [AZD7762] (partner 0.2 µM)", "values": [{"measurement": "relative viability", "setting": "LCLC-97TM1; first compound 0.005 µM", "result": 0.14}, {"measurement": "relative viability", "setting": "LCLC-97TM1; first compound 0.01581 µM", "result": 0.0846}, {"measurement": "relative viability", "setting": "LCLC-97TM1; first compound 0.05 µM", "result": 0.0944}, {"measurement": "relative viability", "setting": "LCLC-97TM1; first compound 0.1581 µM", "result": 0.0643}, {"measurement": "relative viability", "setting": "LCLC-97TM1; first compound 0.5 µM", "result": 0.0575}, {"measurement": "relative viability", "setting": "NCI-H1793; first compound 0.005 µM", "result": 0.304}, {"measurement": "relative viability", "setting": "NCI-H1793; first compound 0.01581 µM", "result": 0.417}, {"measurement": "relative viability", "setting": "NCI-H1793; first compound 0.05 µM", "result": 0.341}, {"measurement": "relative viability", "setting": "NCI-H1793; first compound 0.1581 µM", "result": 0.149}, {"measurement": "relative viability", "setting": "NCI-H1793; first compound 0.5 µM", "result": 0.111}, {"measurement": "relative viability", "setting": "NCI-H3122; first compound 0.005 µM", "result": 0.943}, {"measurement": "relative viability", "setting": "NCI-H3122; first compound 0.01581 µM", "result": 0.585}, {"measurement": "relative viability", "setting": "NCI-H3122; first compound 0.05 µM", "result": 0.397}, {"measurement": "relative viability", "setting": "NCI-H3122; first compound 0.1581 µM", "result": 0.184}, {"measurement": "relative viability", "setting": "NCI-H3122; first compound 0.5 µM", "result": 0.138}, {"measurement": "relative viability", "setting": "BEN; first compound 0.005 µM", "result": 0.588}, {"measurement": "relative viability", "setting": "BEN; first compound 0.01581 µM", "result": 0.425}, {"measurement": "relative viability", "setting": "BEN; first compound 0.05 µM", "result": 0.296}, {"measurement": "relative viability", "setting": "BEN; first compound 0.1581 µM", "result": 0.259}, {"measurement": "relative viability", "setting": "BEN; first compound 0.5 µM", "result": 0.241}, {"measurement": "relative viability", "setting": "HCC-827; first compound 0.005 µM", "result": 0.17}, {"measurement": "relative viability", "setting": "HCC-827; first compound 0.01581 µM", "result": 0.168}, {"measurement": "relative viability", "setting": "HCC-827; first compound 0.05 µM", "result": 0.13}, {"measurement": "relative viability", "setting": "HCC-827; first compound 0.1581 µM", "result": 0.14}, {"measurement": "relative viability", "setting": "HCC-827; first compound 0.5 µM", "result": 0.148}, {"measurement": "relative viability", "setting": "LXF-289; first compound 0.005 µM", "result": 0.927}, {"measurement": "relative viability", "setting": "LXF-289; first compound 0.01581 µM", "result": 0.85}, {"measurement": "relative viability", "setting": "LXF-289; first compound 0.05 µM", "result": 0.442}, {"measurement": "relative viability", "setting": "LXF-289; first compound 0.1581 µM", "result": 0.123}, {"measurement": "relative viability", "setting": "LXF-289; first compound 0.5 µM", "result": 0.0877}, {"measurement": "relative viability", "setting": "LCLC-103H; first compound 0.005 µM", "result": 0.763}, {"measurement": "relative viability", "setting": "LCLC-103H; first compound 0.01581 µM", "result": 0.704}, {"measurement": "relative viability", "setting": "LCLC-103H; first compound 0.05 µM", "result": 0.751}, {"measurement": "relative viability", "setting": "LCLC-103H; first compound 0.1581 µM", "result": 0.469}, {"measurement": "relative viability", "setting": "LCLC-103H; first compound 0.5 µM", "result": 0.369}, {"measurement": "relative viability", "setting": "RERF-LC-KJ; first compound 0.005 µM", "result": 0.957}, {"measurement": "relative viability", "setting": "RERF-LC-KJ; first compound 0.01581 µM", "result": 0.941}, {"measurement": "relative viability", "setting": "RERF-LC-KJ; first compound 0.05 µM", "result": 0.51}, {"measurement": "relative viability", "setting": "RERF-LC-KJ; first compound 0.1581 µM", "result": 0.381}, {"measurement": "relative viability", "setting": "RERF-LC-KJ; first compound 0.5 µM", "result": 0.322}, {"measurement": "relative viability", "setting": "NCI-H647; first compound 0.005 µM", "result": 0.188}, {"measurement": "relative viability", "setting": "NCI-H647; first compound 0.01581 µM", "result": 0.0767}, {"measurement": "relative viability", "setting": "NCI-H647; first compound 0.05 µM", "result": 0.0765}, {"measurement": "relative viability", "setting": "NCI-H647; first compound 0.1581 µM", "result": 0.0321}, {"measurement": "relative viability", "setting": "NCI-H647; first compound 0.5 µM", "result": 0.0304}, {"measurement": "relative viability", "setting": "CAL-12T; first compound 0.005 µM", "result": 0.611}, {"measurement": "relative viability", "setting": "CAL-12T; first compound 0.01581 µM", "result": 0.405}, {"measurement": "relative viability", "setting": "CAL-12T; first compound 0.05 µM", "result": 0.248}, {"measurement": "relative viability", "setting": "CAL-12T; first compound 0.1581 µM", "result": 0.208}, {"measurement": "relative viability", "setting": "CAL-12T; first compound 0.5 µM", "result": 0.221}, {"measurement": "relative viability", "setting": "NCI-H1792; first compound 0.01581 µM", "result": 0.39}, {"measurement": "relative viability", "setting": "NCI-H1792; first compound 0.05 µM", "result": 0.275}, {"measurement": "relative viability", "setting": "NCI-H1792; first compound 0.1581 µM", "result": 0.0675}, {"measurement": "relative viability", "setting": "NCI-H1792; first compound 0.5 µM", "result": 0.0488}, {"measurement": "relative viability", "setting": "NCI-H322M; first compound 0.005 µM", "result": 0.405}, {"measurement": "relative viability", "setting": "NCI-H322M; first compound 0.01581 µM", "result": 0.494}, {"measurement": "relative viability", "setting": "NCI-H322M; first compound 0.05 µM", "result": 0.405}, {"measurement": "relative viability", "setting": "NCI-H322M; first compound 0.1581 µM", "result": 0.371}, {"measurement": "relative viability", "setting": "NCI-H322M; first compound 0.5 µM", "result": 0.385}, {"measurement": "relative viability", "setting": "201T; first compound 0.005 µM", "result": 0.635}, {"measurement": "relative viability", "setting": "201T; first compound 0.01581 µM", "result": 0.596}, {"measurement": "relative viability", "setting": "201T; first compound 0.05 µM", "result": 0.653}, {"measurement": "relative viability", "setting": "201T; first compound 0.1581 µM", "result": 0.342}, {"measurement": "relative viability", "setting": "201T; first compound 0.5 µM", "result": 0.265}, {"measurement": "relative viability", "setting": "NCI-H2087; first compound 0.005 µM", "result": 1.28}, {"measurement": "relative viability", "setting": "NCI-H2087; first compound 0.01581 µM", "result": 1.56}, {"measurement": "relative viability", "setting": "NCI-H2087; first compound 0.05 µM", "result": 1.11}, {"measurement": "relative viability", "setting": "NCI-H2087; first compound 0.1581 µM", "result": 0.709}, {"measurement": "relative viability", "setting": "NCI-H2087; first compound 0.5 µM", "result": 0.231}, {"measurement": "relative viability", "setting": "NCI-H727; first compound 0.005 µM", "result": 0.518}, {"measurement": "relative viability", "setting": "NCI-H727; first compound 0.01581 µM", "result": 0.565}, {"measurement": "relative viability", "setting": "NCI-H727; first compound 0.05 µM", "result": 0.377}, {"measurement": "relative viability", "setting": "NCI-H727; first compound 0.1581 µM", "result": 0.361}, {"measurement": "relative viability", "setting": "NCI-H727; first compound 0.5 µM", "result": 0.418}, {"measurement": "relative viability", "setting": "NCI-H2405; first compound 0.005 µM", "result": 0.612}, {"measurement": "relative viability", "setting": "NCI-H2405; first compound 0.01581 µM", "result": 0.454}, {"measurement": "relative viability", "setting": "NCI-H2405; first compound 0.05 µM", "result": 0.445}, {"measurement": "relative viability", "setting": "NCI-H2405; first compound 0.1581 µM", "result": 0.249}, {"measurement": "relative viability", "setting": "NCI-H2405; first compound 0.5 µM", "result": 0.217}, {"measurement": "relative viability", "setting": "NCI-H1395; first compound 0.005 µM", "result": 0.383}, {"measurement": "relative viability", "setting": "NCI-H1395; first compound 0.01581 µM", "result": 0.39}, {"measurement": "relative viability", "setting": "NCI-H1395; first compound 0.05 µM", "result": 0.331}, {"measurement": "relative viability", "setting": "NCI-H1395; first compound 0.1581 µM", "result": 0.364}, {"measurement": "relative viability", "setting": "NCI-H1395; first compound 0.5 µM", "result": 0.351}, {"measurement": "relative viability", "setting": "NCI-H1437; first compound 0.005 µM", "result": 1.04}, {"measurement": "relative viability", "setting": "NCI-H1437; first compound 0.01581 µM", "result": 0.549}, {"measurement": "relative viability", "setting": "NCI-H1437; first compound 0.05 µM", "result": 0.321}, {"measurement": "relative viability", "setting": "NCI-H1437; first compound 0.1581 µM", "result": 0.167}, {"measurement": "relative viability", "setting": "NCI-H1437; first compound 0.5 µM", "result": 0.146}, {"measurement": "relative viability", "setting": "NCI-H1944; first compound 0.005 µM", "result": 0.353}, {"measurement": "relative viability", "setting": "NCI-H1944; first compound 0.01581 µM", "result": 0.204}, {"measurement": "relative viability", "setting": "NCI-H1944; first compound 0.05 µM", "result": 0.159}, {"measurement": "relative viability", "setting": "NCI-H1944; first compound 0.1581 µM", "result": 0.12}, {"measurement": "relative viability", "setting": "NCI-H1944; first compound 0.5 µM", "result": 0.135}]}]}
